{"source": "patent US8343475B2", "about": "“Small cationic antimicrobial peptides” (priority 2006, dated 2013)", "key": {"[1]": {"system": "CXCL1 (Gro-α) release by human PBMC", "assay": "Chemokine induction in PBMC (capture ELISA)", "format": "cell-based", "conditions": "background (196) subtracted", "how_it_was_run": "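Human PBMC from healthy donors' heparinised blood (Ficoll), 7.5×10^5 cells treated with 20 or 100 μg/ml peptide for 24 h at 37° C, 5% CO2. Cell-free supernatants assayed for CXCL1 by capture ELISA.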"}, "S. aureus": {"system": "S. aureus", "assay": "Mouse model of aggressive bacterial infection (intraperitoneal)", "format": "in vivo", "conditions": "1.6×10^10 CFU S. aureus IP; 8 mg/kg peptide IP four hours post infection", "experimental": "FIG. 10. Ability of new antimicrobial peptides HHC-10 and HHC-36 to protect mice against Staph aureus infections. Bacterial loads in the peritoneal lavage from individual mice after 24 hours of infection are shown (solid circles). Dead animals were assigned the highest colony forming unit (CFU) count obtained in the experiment. The solid line represents the arithmetic mean for each group.\nFIG. 18. […] Mice were treated with 1.6×10^10 CFU of S. aureus intraperitoneally. Four hours post infection they received a dose of 8 mg/kg peptide IP. The infection was allowed to progress for 4 or 24 hours after which mice were euthanaised and plate counts of staphylococci surviving in the peritoneum were determined. Bacterial loads in the peritoneal lavage from individual mice after 24 hours of infection are shown (solid circles). The solid line represents the arithmetic mean for each group.\nFIG. 19. […] Mice were treated with 1.6×10^10 CFU of S. aureus intraperitoneally. Four hours post infection they received a dose of 8 mg/kg peptide IP. The infection was allowed to progress for 4 or 24 hours after which mice were euthanaised and plate counts of staphylococci surviving in the peritoneum were determined. Bacterial loads in the peritoneal lavage from individual mice after 24 hours of infection are shown (solid circles). The solid line represents the arithmetic mean for each group.\nTo further confirm this, a mouse model of aggressive bacterial infection, widely used to assess antibiotic efficacy, was utilized. Mice were treated with 1.6×10^10 CFU IP. Four hours post infection they received a dose of 4 mg/kg peptide IP. The infection was allowed to progress for 20 more hours, for a total infection time of 24 hours.\nThese immunomodulatory activities led to protection against infections by S. aureus. Briefly a mouse model of aggressive bacterial infection, widely used to assess antibiotic efficacy, was utilized. […] The infection was allowed to progress for 4 or 24 hours after which mice were euthanaised and plate counts of staphylococci surviving in the peritoneum were determined."}, "[2]": {"system": "cord blood mononuclear cells (CBMC)", "assay": "Adjuvant properties: cytokine/chemokine induction by peptides alone and with CpG oligonucleotides and polyphosphazene P6", "format": "cell-based, human", "conditions": "peptide alone 20 ug/mL, background subtracted", "text": "It is well accepted that vaccine immunization is best achieved by co-administration of an adjuvant. The precise mechanism by which these adjuvants work has eluded immunologists but appears to work in part by upregulating elements of innate immunity that smooth the transition to adaptive (antigen-specific) immunity (Bendelac A and R. Medzhitov. 2002. Adjuvants of immunity: Harnessing innate immunity to promote adaptive immunity J. Exp. Med. 195:F19-F23). Within this concept there are several possible avenues by which adjuvants might work including the attraction of immune cells into the site at which a particular antigen is injected, through e.g., upregulation of chemokines, the appropriate activation of cells when they reach that site, which can be caused by local cell or tissue damage releasing endogenous adjuvants or through specific cell activation by the adjuvants, and the compartmentalization of immune responses to the site of immunization (the so-called “depot” effect). […] Therefore we studies the ability of our small host defence peptides to upregulate adjuvant responses in both human PBMC and cord blood mononuclear cells (CBMC) (representing the responses of blood cells from neonates), both alone (Table 10 and 11) and in combination with other proposed adjuvant agents that might work through other mechanisms such as CpG oligodeoxy ribonucleotides (TLR9 agionists that activate cells through interaction with TLR9 and fit into 3 different classes A=molecule 2336, B=10103 and C=2395), and polyphosphazene P6 (which induces a depot effect)."}}, "note": "Residues, ends and D or L forms follow the SMILES beside them.", "data": [{"smiles": "CC[C@H](C)[C@H](N)C(=O)N[C@@H](Cc1c[nH]c2ccccc12)C(=O)N[C@H](C(=O)N[C@H](C(=O)N[C@@H](Cc1c[nH]c2ccccc12)C(=O)N[C@@H](CCCNC(=N)N)C(=O)N[C@@H](CCCNC(=N)N)C(N)=O)[C@@H](C)CC)C(C)C", "note": "[HH18, IWVIWRR-NH2] (H-IWVIWRR-NH2; N-terminus assumed)", "values": [{"measurement": "Chemokine induction Gro-α", "setting": "[1]; 20 μg/ml peptide", "value": 865, "unit": "pg/mL"}, {"measurement": "Chemokine induction Gro-α", "setting": "[1]; 100 μg/ml peptide", "value": 2964, "unit": "pg/mL"}, {"measurement": "protection of mice from S. aureus infections (bacterial loads in peritoneal lavage)", "setting": "S. aureus", "value": "Protection of mice from S. aureus infections"}, {"measurement": "Cytokines induced: Gro-α", "setting": "[2]", "value": 55, "unit": "pg/mL"}, {"measurement": "Cytokines induced: IL-6", "setting": "[2]", "value": 7, "unit": "pg/mL"}, {"measurement": "Cytokines induced: IL-8", "setting": "[2]", "value": 372, "unit": "pg/mL"}, {"measurement": "Cytokines induced: MCP-1", "setting": "[2]", "value": 54, "unit": "pg/mL"}, {"measurement": "Cytokines induced: MCP-3", "setting": "[2]", "value": -24, "unit": "pg/mL"}, {"measurement": "Cytokines induced: TNF-α", "setting": "[2]", "value": -4, "unit": "pg/mL"}]}]}
